In patent US7314726B2, “Beta secretase exosite binding peptides and methods for identifying beta secretase modulators” (Bristol-Myers Squibb Company, priority 2002, dated 2008):

Target: BACE (Homo sapiens, UniProt P56817)
Test: Isothermal titration calorimetry (ITC) of BACE and peptides
Type: binding
Design: The cDNA for the catalytic domain of human BACE (residues 1-460) was PCR-amplified; human IgG1 heavy chain (C, cleaved yes); thrombin cleavage site (C); made in house; host or cells: CHO DG44 cells (stably transfected, secreted)
Experimental: Isothermal titration calorimetry was performed to determine quantitatively the binding affinities of BMS-561877 and BMS-561871 for β-secretase. Recombinant human BACE was expressed as a fusion protein with human IgG1, in Chinese hamster ovary (CHO) cells (Vassar et al., (1999) Science 286:735-741 and Haniu et al., (2000) J. Biol. Chem. 275:21099-21106).
This construct, referred to as BACE-T-IgG, also contained a protease cleavage site between BACE and IgG1, sensitive to human α-thrombin. The cDNA for the catalytic domain of human BACE (residues 1-460) was PCR-amplified and subcloned into the mammalian expression vector pTV1.6, upstream of a thrombin cleavage site linked to cDNA encoding human IgG1 heavy chain. The vector construct, pTV1.6-BACE-T-IgG, was used to produce stably transfected DHFR-deficient CHO DG44 cells, which were then scaled up using methotrexate for selection.
The clarified growth media harvested from CHO DG44 cells which contained the fusion protein was loaded onto a rProtein A SEPHAROSE™ column (5×20 cm, Amersham Pharmacia Biotech) using a peristaltic pump at 4° C., at 4 mL/min. The column was washed with Dulbecco's PBS, pH 7.1, 4 mL/min, until baseline absorbance at 280 nm was observed. BACE-T-IgG was eluted from the resin with 0.10 M citrate, pH 3.0, into tubes containing 0.5 volumes of 4 M Tris, pH 8. Fractions containing the fusion protein were dialyzed extensively using 12,000-14,000 […] MWCO membrane (UltraPURE, GIBCO BRL) against PBS, pH 7.1, at 4° C. The protein was sterile filtered (0.22 μm) and stored at 4° C.
To generate BACE for binding experiments, the fusion protein BACE-T-IgG was treated with human α-thrombin (Enzyme Research Labs, South Bend, Ind.) at a ratio of 1:500 (mass:mass) in Dulbecco's PBS, pH 7.1, at 37° C. for 2 hr. Human α-thrombin was removed by passing the sample over Benzamidine SEPHAROSE™ 6B column (Amersham Pharmacia Biotech). The cleaved IgG1 was captured by passing the solution over a rProtein A SEPHAROSE™ (Amersham Pharmacia Biotech) column, whereas the BACE passed through this column. The protein sample was further purified by concentrating to 10-15 mg/mL using a centrifugation concentration unit (Millipore Ultrafree 10 kDa MWCO, 15 mL unit) and loading onto a SUPERDEX™ 200 PC 3.2/30 gel-filtration column (Amersham Pharmacia Biotech). The column was run at 3 mL/min with Dulbecco's PBS, pH 7.1, at room temperature. Fractions containing BACE were combined, sterile filtered (0.22 μm) and stored at 4° C.
BACE was prepared for isothermal titrating calorimetry by extensive dialysis against fresh buffer at 4° C. using 12,000-14,000 […] MWCO dialysis membrane (UltraPURE, GIBCO BRL). […] Following 2 buffer changes, the protein was removed from the membrane and centrifuged (5 min×4000 g, 4° C.) to remove particulates. The protein was stored at 4° C. until needed for the calorimetry experiments. The protein concentration was determined by 10-fold dilution into the same buffer, and measuring the UV absorbance at 280 nm in a 1.00 cm pathlength cell (calculated value=1.22 AU=1.00 mg/mL protein, based on mean glycosylated molecular weight=53.5 kDa, and given amino acid composition). Final concentrations used in isothermal titrating calorimetry were typically 5.0 μM, containing a final concentration of 0.5% v/v DMSO.
Peptides were dissolved in the buffer dialysate from protein dialysis, and equal volumes of DMSO were added to each (0.5% v/v DMSO). The pH values of the solutions were adjusted as necessary to equal that of the buffer dialysate and protein sample within 0.01 pH units.

[1] = pH 5.3, 37° C., sample cell: CHO BACE
[2] = pH 5.3, 37° C., sample cell: CHO BACE: OM99-2 (10-fold excess added first)

Sequence of BACE (P56817 46-460 limits assumed): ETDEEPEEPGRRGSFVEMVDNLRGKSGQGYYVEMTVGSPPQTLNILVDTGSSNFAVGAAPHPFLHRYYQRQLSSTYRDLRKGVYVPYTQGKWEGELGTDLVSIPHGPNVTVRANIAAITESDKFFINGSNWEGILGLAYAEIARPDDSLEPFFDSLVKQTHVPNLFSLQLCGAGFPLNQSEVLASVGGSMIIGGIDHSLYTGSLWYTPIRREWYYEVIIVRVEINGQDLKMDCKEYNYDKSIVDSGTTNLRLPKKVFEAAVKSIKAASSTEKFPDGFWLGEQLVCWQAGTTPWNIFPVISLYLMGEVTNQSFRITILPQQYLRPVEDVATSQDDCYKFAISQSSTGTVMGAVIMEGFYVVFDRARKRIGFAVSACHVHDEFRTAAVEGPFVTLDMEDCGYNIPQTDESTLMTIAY

KA (25° C., Dulbecco's PBS, pH 7.1): 1.65e+07 M⁻¹ | Kd (25° C., Dulbecco's PBS, pH 7.1): 61 nM | n (binding stoichiometry) (25° C., Dulbecco's PBS, pH 7.1): 1.03 | ΔH (25° C., Dulbecco's PBS, pH 7.1): -12.9 kcal/mol | Kd [1]: 380 nM | T(dS) [1]: -6.8 kcal/mol | ΔG [1]: -9.1 kcal/mol | ΔH [1]: -15.9 kcal/mol | Kd [2]: 280 nM | T(dS) [2]: -5.7 kcal/mol | ΔG [2]: -9.3 kcal/mol | ΔH [2]: -15.0 kcal/mol
Substance: Ac-NLTTYPYFIPLP-OH [BMS-561871]
